Measurements from ChEMBL document CHEMBL1201862, “PubChem BioAssay data set” (2004).
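Tested at 5 concentrations; 48 h exposure; 96-well plates; endpoints linearly interpolated, else capped at highest concentration. At the GI50, growth is halved.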 Calls of active or inactive are those of the source. Rule as the data show it: active = GI50 up to about 1.1 µM and inactive = higher.

Assays:
Assay in all cases: NCI tumour cell line growth inhibition, 48 h
[1] = test system: SK-MEL-5
[2] = test system: HCC 2998
[3] = test system: T47D
[4] = test system: Malme-3M
[5] = test system: MOLT-4
[6] = test system: OVCAR-4
[7] = test system: MDA-N
[8] = test system: COLO 205
[9] = test system: NCI-H460
[10] = test system: HOP-92
[11] = test system: UACC-257
[12] = test system: LOX IMVI
[13] = test system: SF-268
[14] = test system: EKVX
[15] = test system: HCT-116
[16] = test system: MDA-MB-231
[17] = test system: UO-31
[18] = test system: DU-145
[19] = test system: NCI-H226
[20] = test system: RXF 393

Row | Structure (SMILES) | GI50 [1] | GI50 [2] | GI50 [3] | GI50 [4] | GI50 [5] | GI50 [6] | GI50 [7] | GI50 [8] | GI50 [9] | GI50 [10] | GI50 [11] | GI50 [12] | GI50 [13] | GI50 [14] | GI50 [15] | GI50 [16] | GI50 [17] | GI50 [18] | GI50 [19] | GI50 [20]
1 | Cc1cc(=O)oc2cc(OC(=O)N(C)C)c(Cl)cc12 | 76 µM (inactive) | > 100 µM (inactive) | 85.9 µM (inactive) | 84.3 µM (inactive) | > 100 µM (inactive) | > 100 µM (inactive) | > 100 µM (inactive) | 95.9 µM (inactive) | > 100 µM (inactive) | 82 µM (inactive) | 80.5 µM (inactive) | 85.5 µM (inactive) | 86.5 µM (inactive) | > 100 µM (inactive) | > 100 µM (inactive) | > 100 µM (inactive) | > 100 µM (inactive) | > 100 µM (inactive) | 29.3 µM (inactive) | 2 µM (inactive)
2 | C=C1CC(c2ccc(OCCCN3C(=O)c4ccccc4C3=O)c(OC)c2)OC1=O (stereo not given) | 11.1 µM (inactive) | 12 µM (inactive) | 2.56 µM (inactive) | 3.27 µM (inactive) | 0.615 µM (active) | 1.06 µM (active) | 3.44 µM (inactive) | 1.4 µM (inactive) | 2.62 µM (inactive) | 1.62 µM (inactive) | 3.63 µM (inactive) | 1.74 µM (inactive) | 8.09 µM (inactive) | 11 µM (inactive) | 1.6 µM (inactive) | 9.25 µM (inactive) | 3.69 µM (inactive) | 11.9 µM (inactive) | 5.61 µM (inactive) | 1.95 µM (inactive)
3 | CO[C@H]1O[C@@H]2CO[C@@H](c3ccccc3)O[C@H]2C[C@]12CCC/C=C\CO2 | 17.5 µM (inactive) | 18.7 µM (inactive) | 18 µM (inactive) | 14.1 µM (inactive) | 12.9 µM (inactive) | 21.9 µM (inactive) | 14.1 µM (inactive) | 13.9 µM (inactive) | 47.4 µM (inactive) | 13.5 µM (inactive) | 22.2 µM (inactive) | 12.6 µM (inactive) | 14.4 µM (inactive) | 11.6 µM (inactive) | 12.7 µM (inactive) | 16.7 µM (inactive) | 14.3 µM (inactive) | 33.5 µM (inactive) | 18.3 µM (inactive) | 13.9 µM (inactive)
4 | N#C/N=C(/NCc1ccccc1)N(Cc1ccccc1)Cc1ccccc1 | 14.9 µM (inactive) | 32.9 µM (inactive) | 35 µM (inactive) | > 10 µM (inactive) | 14.1 µM (inactive) | 23.8 µM (inactive) | 46.7 µM (inactive) | > 10 µM (inactive) | 19.6 µM (inactive) | 24.6 µM (inactive) | > 10 µM (inactive) | 19.2 µM (inactive) | 22.2 µM (inactive) | > 10 µM (inactive) | 17.8 µM (inactive) | 18.3 µM (inactive) | 16.4 µM (inactive) | 63 µM (inactive) | 22.4 µM (inactive) | 27.7 µM (inactive)
5 | COc1cccc(C(=O)C(O)c2cccc(OC)c2OC)c1OC (stereo not given) | > 100 µM (inactive) | > 100 µM (inactive) | > 100 µM (inactive) | > 100 µM (inactive) | > 100 µM (inactive) | > 100 µM (inactive) | > 100 µM (inactive) | > 100 µM (inactive) | > 100 µM (inactive) | > 100 µM (inactive) | > 100 µM (inactive) | > 100 µM (inactive) | > 100 µM (inactive) | > 100 µM (inactive) | > 100 µM (inactive) | > 100 µM (inactive) | > 100 µM (inactive) | > 100 µM (inactive) | > 100 µM (inactive) | > 100 µM (inactive)
6 | O=c1[nH]nc(Cc2ccc(Cl)cc2)n1/N=C\CC/C=N\n1c(Cc2ccc(Cl)cc2)n[nH]c1=O | 47.3 µM (inactive) | > 100 µM (inactive) | 20 µM (inactive) | 24.3 µM (inactive) | > 24.1 µM (inactive) | > 81.3 µM (inactive) | > 50.9 µM (inactive) | > 100 µM (inactive) | > 100 µM (inactive) | > 55.5 µM (inactive) | 50.9 µM (inactive) | 13.6 µM (inactive) | 13.5 µM (inactive) | 21.3 µM (inactive) | 27.2 µM (inactive) | 25.8 µM (inactive) | > 100 µM (inactive) | > 93.1 µM (inactive) | 18.4 µM (inactive) | 15.1 µM (inactive)
7 | O=c1cc(/C=C/c2ccc(O)c(O)c2)cc(/C=C/c2ccc(O)c(O)c2)o1 | 8.59 µM (inactive) | 6.68 µM (inactive) | 8.79 µM (inactive) | 5.82 µM (inactive) | 1.92 µM (inactive) | 14.3 µM (inactive) | 11.6 µM (inactive) | 12.1 µM (inactive) | 14.3 µM (inactive) | 15.2 µM (inactive) | 12.5 µM (inactive) | 15.7 µM (inactive) | 5.86 µM (inactive) | 8.11 µM (inactive) | 8.17 µM (inactive) | 11.5 µM (inactive) | 4.22 µM (inactive) | 9.23 µM (inactive) | 14.9 µM (inactive) | 6.71 µM (inactive)
8 | Nc1nc(F)nc2c1ncn2C1OC(CO)C(O)C1O (stereo not given) | 55.5 µM (inactive) | 49.3 µM (inactive) | > 70 µM (inactive) | 32.5 µM (inactive) | 1.14 µM (inactive) | > 100 µM (inactive) | > 58.6 µM (inactive) | 53.1 µM (inactive) | 73.1 µM (inactive) | 8.79 µM (inactive) | > 90.8 µM (inactive) | 48.2 µM (inactive) | > 61.7 µM (inactive) | > 100 µM (inactive) | 39.5 µM (inactive) | > 100 µM (inactive) | 11.1 µM (inactive) | 15.7 µM (inactive) | > 100 µM (inactive) | > 81.8 µM (inactive)
